Publication PMC7824033, “Flavones, Flavonols, and Glycosylated Derivatives—Impact on Candida albicans Growth and Virulence, Expression of CDR1 and ERG11, Cytotoxicity” (Pharmaceuticals, 2020)
≈ marks a conversion by molar mass, not a printed value. Entries after “also recorded” stand apart in the source; their conditions may differ. Read-outs that look alike come from different tables or passages of the source.

Legend:
[1] = tested on: C. albicans 475/15; design: method as in PMID 28827996; settings: previously published; cited from earlier work
[2] = tested on: CDR1; assay: Expression of CDR1 (qPCR); assay type: cell-based, Candida albicans; settings: treatment with MIC
Experimental: Total RNA was isolated as described by Sanglard et al. with some modifications. C. albicans 475/15 was grown with agitation at 30 °C in YEPD until OD540 = 0.4. C. albicans cells were incubated with MIC of compounds in YEPD at 30 °C with agitation for 30 min. Cells were centrifuged (4600 rpm, 4 °C for 5 min (Rotanata 460 R, Hettich, Tuttlingen, Germany)) and the pellet was resuspended in 300 µL of RNA buffer (0.1 M Tris-HCl pH 7.5, 0.1M LiCl, 10mM EDTA, 0.5% SDS). The pellet was homogenized with 200 µL of DEPC treated glass beads and 300 µL of Phenol:Chloroform:Isoamyl Alcohol (Sigma-Aldrich, Darmstadt, Germany) in Precellys Evolution tissue homogenizer (Bertion instruments, Montigny-le-Bretonneux, France) at 4500 rpm for 5 s. After centrifugation (14,000 rpm, 4 °C, 1 min (Universal 32 R, Hettich, Tuttlingen, Germany)) 200 µL of supernatant was vortexed with 250 µL of Phenol:Chloroform:Isoamyl Alcohol for 10 s. Samples were centrifuged (14,000 rpm, 4 °C, 1 min) and 200 µL of supernatant was transferred to new tubes, 400 µL of ice-cold 99% ethanol was added to each tube, and they were kept on dry ice for 10 min. Samples were centrifuged (14,000 rpm, 4 °C, 2 min), pellet was washed with ethanol (70%), left to dry at room temperature, after which it was dissolved in 50 µL of DEPC treated water. Nanodrop (ND-1000, Witec AG, Sursee, Switzerland) was used for determination of concentration and purity of samples. RNA was stored at −80°C.
Amount of 10 µg RNA was incubated with 5 µL of DNAse buffer and 1 µL of DNAse at 37 °C for 30 min (DNA-free™ DNA Removal Kit, Ambion, Bleiswijk, Netherlands). After addition of DNAse inactivation reagent tubes were kept at room temperature with occasional vortexing for 5 min. Samples were centrifuged (14,000 rpm, 4°C, 2 min) and the concentration and quality of supernatant were analyzed on Nanodrop (ND-1000, Witec AG, Sursee, Switzerland).
Synthesis of cDNA was done with a Transcriptor High Fidelity cDNA synthesis kit (Roche). RNA (1 µg) was incubated with 60 µM random hexamer primers, in 11.4 µL of total sample volume, at 65 °C for 10 min. The mixture of Transcriptase reaction buffer 5×, Deoxynucleotide mix, DTT, Protector RNAse inhibitor, and Transcriptor High Fidelity Reverse Transcriptase was added to each tube according to manufacturer instructions. Synthesis of cDNA was completed by incubating the mixture at 50 °C for 30 min and 85 °C for 5 min (Peqstar thermocycler, Peqlab, Erlangen, Germany).
Wells of MicroAmp Fast 96-Well Reaction plate ((0.1 mL), Applied biosystems, Waltham, MA, USA) were incubated with 10 µL of mixture (cDNA, 2× MasterMix, primers, probe (Table 3), and water). Analysis was performed in StepOnePlus Real Time PCR system with relative standard curve method. Expression levels of CDR1 and ERG11 were normalized to expression of ACT1.

[3] = tested on: 3T3-L1 pre-adipocytes; settings: up to 100 μM; cited from earlier work
[4] = tested on: C. albicans 475/15 hyphal growth; assay: Anti-hyphal forming activity; assay type: cell-based, Candida albicans; settings: MIC, 4 h, YPD + 10% FBS
Experimental: C. albicans 475/15 cells were incubated with MIC of tested compounds in YPD + 10% FBS, at 37 °C, for 4 h. Cells were examined under microscope (Nikon Eclipse TS2, Amsterdam, Netherland) and number of cells, growing in the yeast or hyphal and germ tube formations, was determined. Assay was performed in triplicate and percentage of hyphae was determined.

[5] = tested on: C. albicans 475/15 biofilm formation; assay: Inhibition of biofilm formation (crystal violet); assay type: cell-based, Candida albicans
Experimental: Potential of selected compounds to interfere with C. albicans 475/15 biofilm formation was investigated as previously described. Briefly, C. albicans 475/15 was incubated with serial dilution of the compounds (MIC and subMICs) in YPD medium, in 96-well microtiter plates with adhesive bottom (Sarstedt, Nümbrecht, Germany), at 37 °C for 24 h. After incubation, wells were washed twice with sterile PBS and methanol was added into each well. After fixation, methanol was discarded, and the plate was air dried. Formed biofilms were stained with 0.1% crystal violet (Bio-Merieux, Craponne, France) for 30 min. The plate was gently washed under the tap of water and air dried. The stain bound to the remaining biofilms was dissolved with ethanol (96%, Zorka, Šabac, Serbia). Absorbance was read on a Multiskan™ FC Microplate Photometer, Thermo Scientific™. The percentage of inhibition of biofilm formation was calculated by the formula:[(A620control − A620sample)/A620control] × 100

[6] = Cytotoxicity, Sulforhodamine B assay; settings: pig
Experimental: (§1) Preparation of PLP2 cell line was performed with freshly harvested porcine liver supplied from a local slaughter house. Tissues from the liver were washed in Hank’s balanced salt solution comprising 100 U/mL penicillin and 100 μg/mL streptomycin and split into 1 × 1 mm^3 explants. Some of the prepared explants were set in 25 cm^2 tissue flasks in Dulbecco’s modified Eagle’s medium (DMEM) with 10% fetal bovine serum (FBS), 2 mM nonessential amino acids, 100 U/mL penicillin, and […] streptomycin, and incubation was conducted at 37 °C with 5% CO2 in a humidified atmosphere. The fresh medium was added every 2 days. Cultivation of the cells was further conducted with direct observation by the phase contrast microscope every 2–3 days. Before confluence was achieved, cells were subcultured and seeded in 96-well plates at a density of 1.0 × 10^4 cells per well and cultivated in DMEM supplemented with 10% FBS, 100 U/mL penicillin, and 100 μg/mL streptomycin. Previously described Sulforhodamine B assay was used for the determination of cytotoxicity. The obtained results were defined as GI50 values corresponding to the compound concentration that inhibits 50% of the net cell growth. Ellipticine was used as a positive control.

[7] = tested on: porcine liver cells PLP2; assay: Cytotoxicity, Sulforhodamine B assay
Experimental: as §1

[8] = tested on: ERG11; settings: identical assay, previously published; cited from earlier work
[9] = tested on: C. albicans 13/15; assay: Microdilution assay, MIC and MFC; assay type: cell-based; settings: Candida albicans, C. albicans 13/15, mean ± SD of three replicates; for MFC: read-out: MFC; for MIC: read-out: MIC
Source text: (§2) C. albicans was isolated from oral cavities of patients at ENT Clinic, Clinical Hospital Centre Zvezdara, Belgrade, Serbia after obtaining informed written consent and identified by using CHROMagar plates (Biomerieux, Craponne, France). Strains were maintained on Sabouraud Dextrose Agar (Merck, Darmstadt, Germany) and are deposited at the Mycological Laboratory, Department of Plant Physiology, Institute for Biological Research “Siniša Stanković”, National Institute of Republic of Serbia, University of Belgrade. The collection of samples was approved by the Ethical Committee (Office for Human Research Protection, Zvezdara University Medical Center, Belgrade, Serbia, document issued 26 October 2016).
(§3) Microdilution assay with some modification was used for determination of minimum inhibitory (MIC) and minimum fungicidal concentrations (MFC). Yeast cultures were adjusted to 1.0 × 10^5 CFU/per well with sterile PBS (Phosphate buffered saline, pH 7.4). The 96-well microtiter plates with serially diluted flavonoids (concentration range 0.3–75 µg/mL) in liquid broth were incubated at 37 °C for 24 h. After incubation, MIC and MFC were determined. The lowest concentrations that were not inducing microscopically observed growth were considered as MIC. For microscopic determination of growth, we used inverted microscope Nikon Eclipse TS2 (Amsterdam, Netherland) and examined the fungal growth in the wells of 96-well microtiter plates compared to the control (untreated yeast cells). MFC values were determined as concentrations without visible growth after serial sub-cultivation of 10 µL of samples at 37 °C for 24 h. Ketoconazole and amphotericin B (SigmaAldrich, Darmstadt, Germany) were used as an antifungal control. The tested flavonoids were obtained from Extrasynthese, Rhone, France.

[10] = tested on: C. albicans 475/15; assay: Microdilution assay, MIC and MFC; assay type: cell-based; settings: Candida albicans, C. albicans 475/15, mean ± SD of three replicates; for MFC: read-out: MFC; for MIC: read-out: MIC
Source text: as §2, §3

[11] = tested on: C. albicans 10/15; assay: Microdilution assay, MIC and MFC; assay type: cell-based; settings: Candida albicans, C. albicans 10/15, mean ± SD of three replicates; for MFC: read-out: MFC; for MIC: read-out: MIC
Source text: as §2, §3

[12] = tested on: C. albicans 527/14; assay: Microdilution assay, MIC and MFC; assay type: cell-based; settings: Candida albicans, C. albicans 527/14, mean ± SD of three replicates; for MFC: read-out: MFC; for MIC: read-out: MIC
Source text: as §2, §3

[13] = tested on: CDR1; settings: identical assay, previously published; cited from earlier work
[14] = tested on: TIG-1 (human lung embryonic fibroblasts); settings: read-out: LC50; TIG-1 cells; cited from earlier work
[15] = tested on: C. albicans biofilm; settings: 625–5000 µg/mL; C. albicans ATCC 90028; cited from earlier work
[16] = tested on: C. albicans; settings: cited from earlier work
[17] = tested on: S. aureus efflux; design: method as in PMID 25961825; settings: S. aureus; cited from earlier work
[18] = tested on: Candida albicans; assay: Microdilution assay, MIC (strain not named); assay type: cell-based; settings: C. albicans, this study, strain not given, read-out: minimum inhibitory concentration (MIC)
Source text: as §2, §3

[19] = tested on: HUVE (human umbilical vein endothelial) cells; settings: read-out: LC50; cited from earlier work

SMILES	impact on CDR1 expression [2]	GI50 [6] [µg/mL]	MFC [9] [µg/mL]	MIC [9] [µg/mL]	MFC [10] [µg/mL]	MIC [10] [µg/mL]	MFC [11] [µg/mL]	MIC [11] [µg/mL]	MFC [12] [µg/mL]	MIC [12] [µg/mL]	also measured
O=c1cc(-c2ccc(O)cc2)oc2cc(O[C@@H]3O[C@H](CO)[C@@H](O)[C@H](O)[C@H]3O)cc(O)c12 [Apigetrin, apigetrin]	downregulated; also recorded: inhibitory impact; also recorded: lowering CDR1 expression	90 ± 1 (≈ 208 µM)	–	–	–	–	–	–	–	–	MIC [1]: 50 µg/mL (≈ 116 µM); CDR1 expression level, log2FC ([2]; 30 min, normalized to ACT1): < −1 log2FC; cytotoxicity [3]: does not induce cytotoxicity; reduction of hyphal growth (words) [4]: lowest number of cells growing in the hyphal form; also recorded: strongest anti-hyphal potential; antibiofilm activity ([5]; MIC and subMICs): notably lowered; inhibition of biofilm formation ([5]; compound applied at MIC/2): > 60%; reduction of biofilm formation ([5]; concentration not given): more than 50%; cytotoxic effect ([7]; PLP2 cells): some cytotoxic effect
CC(=O)N1CCN(c2ccc(OCC3COC(Cn4ccnc4)(c4ccc(Cl)cc4Cl)O3)cc2)CC1 (stereo not drawn) [Ketoconazole, reference compound]	–	–	50 ± 0.2 (≈ 94.1 µM)	1.6 ± 0.2 (≈ 3.01 µM)	6.2 ± 0.1 (≈ 11.7 µM)	3.1 ± 0.1 (≈ 5.83 µM)	50 ± 0.1 (≈ 94.1 µM)	3.1 ± 0.1 (≈ 5.83 µM)	6.2 ± 0.1 (≈ 11.7 µM)	3.1 ± 0.1 (≈ 5.83 µM)	impact on ERG11 expression (words) [8]: lack; impact on CDR1 expression [13]: lack
O=c1cc(-c2ccc(O)c(O)c2)oc2cc(O)cc(O)c12 [Luteolin, luteolin]	did not exhibit any significant inhibitory potential	> 400	75 ± 2 (≈ 262 µM)	37.5 ± 1 (≈ 131 µM)	75 ± 2 (≈ 262 µM)	37.5 ± 1 (≈ 131 µM)	75 ± 2 (≈ 262 µM)	37.5 ± 1 (≈ 131 µM)	75 ± 20 (≈ 262 µM)	37.5 ± 1 (≈ 131 µM)	CC50 [14]: 107 µM; activity towards biofilm [15]: inefficient; MIC ([16]; clinical isolates and C. albicans 10231): > 83 µg/mL; MIC ([16]; different C. albicans strains, ref 13): 3100 µg/mL (≈ 10800 µM); MIC ([16]; different C. albicans strains, ref 15): > 1000 µg/mL; IC50, efflux inhibition [17]: 75 µg/mL (≈ 262 µM); cytotoxic effect [7]: did not exhibit cytotoxic effect; MIC [18]: 37.5 µg/mL (≈ 131 µM); CC50 [19]: 57 µM
